Patent US6541463B1, “Inhibitors of type 5 and type 3 17β-hydroxysteroid dehydrogenase and methods for their use” (Endorecherche, Inc., priority 1998, dated 2003)

What follows are compounds tested against T1, human type 5 17β-hydroxysteroid dehydrogenase (Homo sapiens, UniProt P42330) (assay: Reversibility of human type 5 17β-HSD inhibitory activity (preincubation, wash)). Conditions: not given.
T1 construct: screen again a human placental λgt11 cDNA to get the full length cDNA clone; expressed in transfected cells; host or cells: human embryonal kidney 293 cells (pCMV / pCMV-neo vector)
T1 sequence (P42330 1-323): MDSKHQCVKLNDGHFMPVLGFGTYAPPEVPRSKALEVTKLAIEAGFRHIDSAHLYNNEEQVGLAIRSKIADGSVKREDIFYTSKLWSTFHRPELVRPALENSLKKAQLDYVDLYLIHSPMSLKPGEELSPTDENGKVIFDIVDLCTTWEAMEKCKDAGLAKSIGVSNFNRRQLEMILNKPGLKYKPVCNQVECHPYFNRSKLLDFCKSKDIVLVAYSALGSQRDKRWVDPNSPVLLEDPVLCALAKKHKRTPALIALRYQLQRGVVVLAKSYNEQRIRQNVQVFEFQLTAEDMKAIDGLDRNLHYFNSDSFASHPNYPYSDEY
Assay type: cell-based
Method: In column 3, the reversibility of the inhibition of type 5 17β-hydroxysteroid dehydrogenase activity expressed in percentage of control is reported. The manner in which the reversibility is determined is described in “Efficacy of Preferred Inhibitors: V. Reversibility of Human Type 5 17β-HSD Inhibitory Activity”. Lower number is desirable. Blank means that a determination was not done.
Determination of activity was performed as described (Luu-The et al., Mol. Endocrionol. 4: 268-275, 1990, Lachance et al., J. Biol. Chem. 265: 20469-20475, 1990; Luu-The et al., DNA & Cell Biol. 14: 511-518, 1995). Briefly, 0.1 μM of the indicated ^14C-labeled substrate (Dupont Inc. (Canada), namely, DHEA, 4-androstene-3,17-dione (Δ4), in absence or presence of increasing concentration of preferred inhibitor of the invention, was added to freshly changed culture medium in a 6-well culture plate. After incubation for 1 h, the steroids were extracted twice with 2 ml of ether. The organic phase were pooled and evaporated to dryness. The steroids were solubilized in 50 μl of dichloromethane, applied to Silica gel 60 thin layer chromatography (TLC) plate (Merck, Darmstad, Germany) then separated by migration in the toluene-acetone (4:1) solvent system. […] Transfection could be also performed with HeLa, SW-13, 293, COS-1 cells, the preferred cell line is 293 cells.
The reversibility assay was performed as described above for the standard type 5 17β-HSD enzymatic assay, except that before adding the ^14C-labeled substrate, the cells were preincubated with 0.3 μM of the indicated inhibitor for 1 h, (or the indicated time interval), followed by two washes with phosphate saline buffer (PBS).

Row | Structure (SMILES) | Reversibility ((%) of control)
1 | COc1ccc(CC(=O)O[C@]2(C(C)=O)CCC3C4C=C(C)C5=CC(=O)C=C[C@]5(C)C4CC[C@@]32C)cc1 (stereo partly drawn) [EM-1291] | 27%

Same assay, conditions: Table 4′

Row | Structure (SMILES) | Reversibility ((%) of control)
2 | COCCOc1cc2c(cc1F)C1CCC3(C)C(CCC34CCC(C)(C)C(=O)O4)C1CC2 (stereo not drawn) [EM-1393-CS] | 38 % of control
3 | COCCOc1cc2c(cc1C(=O)O)C1CCC3(C)C(CCC34CCC(C)(C)C(=O)O4)C1CC2 [EM-1405, 2-Carboxy-3-(2″-methoxyethyloxy)-1,3,5(10)-estratrien-17(R)-spiro-2′-(5′,5′-dimethyl-6′-oxo)tetrahydropyran] | 53 % of control
4 | CC1(C)CCC2(CCC3C4CCc5cc(OCCN6CCCCC6)ccc5C4CCC32C)OC1=O [EM-1390-CS, 3-(N-piperidyl-ethyl)-1,3,5(10)-estratrien-17(R)-spiro-2′-(5′,5′-dimethyl-6′-oxo)-tetrahydropyran] | 50 % of control
5 | COc1ccc2c(c1)C(=O)CC1C2CC[C@@]2(C)C1CC[C@@]21CCC(C)(C)C(=O)O1 (stereo partly drawn) [EM-1394] | 23 % of control
6 | CC1(C)CCC2(CCC3C4CCc5c(cc(Cl)c(O)c5Cl)C4CCC32C)OC1=O (stereo not drawn) [EM-1391-CS] | 49 % of control
7 | COc1cc2c(cc1C)C1CCC3(C)C(CCC34CCC(C)(C)C(=O)O4)C1CC2 (stereo not drawn) [EM-1412-CS] | 71 % of control
8 | CC1(C)CC[C@@]2(CCC3C4CCc5cc(F)ccc5C4CC[C@@]32C)OC1=O (stereo partly drawn) [EM-1157-CS] | 28 % of control
9 | COCCOc1cc2c(cc1C(=O)N(C)C)C1CCC3(C)C(CCC34CCC(C)(C)C(=O)O4)C1CC2 (stereo not drawn) [EM-1413-CS] | 37 % of control
10 | CC1(C)CC[C@@]2(CCC3C4CCc5cc(C(=O)O)ccc5C4CC[C@@]32C)OC1=O (stereo partly drawn) [EM-1401, 3-Carboxy-1,3,5(10)-estratrien-17(R)-spiro-2′-(5′,5′-dimethyl-6′-oxo)tetrahydropyran] | 31 % of control
11 | CN(C)CCOc1ccc2c(c1)CCC1C2CCC2(C)C1CCC21CCC(C)(C)C(=O)O1 (stereo not drawn) [EM-1389-CS] | 40 % of control
12 | COc1c(Br)cc2c(c1Br)CCC1C2CCC2(C)C1CCC21CCC(C)(C)C(=O)O1 (stereo not drawn) [EM-1385-CS] | 60 % of control
13 | CC1(C)CCC2(CCC3C4CCc5c(cc(Cl)c(OS(C)(=O)=O)c5Cl)C4CCC32C)OC1=O (stereo not drawn) [EM-1392-CS] | 38 % of control

The compounds below were run on ZR-75-1 cells (assay: Antiestrogenic activity: inhibition of E2-induced proliferation of ZR-75-1 cells). Conditions: E2.
Assay type: cell-based, human
Parameters: ZR-75-1 Activity, E2 / ZR-75-1 Activity E2 E^−6: unit not given here
Method: The manner in which the inhibition is determined is described in “Other Tests; C-Estrogenic/Antiestrogenic Activity”. Lower numbers are desirable. ND means that a determination was not done.
Estrogenic/antiestrogenic activity of some preferred compounds has been measured using the […] human breast cancer cell line as described in more detail below.
All media and medium supplments were purchased from Sigma. Cells were subcultured weekly by treatment with a pancreatic solution containing EDTA (0.2 g/L). The cell cultures used for the experiments herein describied were between passages 89 and 94.
Cells in their logarithmic growth phase were harvested, briefly centrifuged, and resuspended in RPMI 1640. Cells were then plated in triplicate in LIMBRO 24-well plastic culture plates (2 cm^2/well). Since plating density influences the effect of hormones on ZR-75-1 cell growth, cells were plated at a density of 1×10^4 cells/well. […] Control cultures received the ethanol vehicle only. Cells were then allowed to grow at 37° C. for 10 days with medium changes (of identical composition) every 2 days.
After E2 and/or antiestrogen treatment, cells were harvested by addition of 0.5 ml of a pancreatin solution (Sigma) for 5-10 min at 37° C. before addition of 0.5 mnl of RPMI 1640 containing 5% dextran coated […] bovine serum in order to block enzymatic action. Cell number (0.10 ml aliquot) was determined by measurement of DNA content as previously described (Simard et al., Endocrinology 126: 3223-3231,1990).

Row | Structure (SMILES) | ZR-75-1 Activity, E2
14 | COC(=O)CCCC(=O)O[C@]1(C(C)=O)CC[C@H]2[C@@H]3C=C(C)C4=CC(=O)CC[C@]4(C)[C@H]3CC[C@@]21C [EM-1007, 6-Methyl-4,6-pregnadien-17α-ol-3,20-dione 4′-Carbomethoxybutyrate] | −52
15 | CC(=O)[C@@]1(OC(=O)CCCCF)CCC2C3C=C(C)C4=CC(=O)CC[C@]4(C)C3CC[C@@]21C (stereo partly drawn) [EM-1195-CS] | −40
16 | CCC(=O)O[C@]1(C(C)=O)CCC2C3C=C(C)C4=CC(=O)C[C@H](C)[C@]4(C)C3CC[C@@]21C (stereo partly drawn) [CS-243] | −57
17 | CC(=O)O[C@]1(C(C)=O)CCC2C3C=C(C)C4=CC(=O)CC[C@]4(C)C3CC[C@@]21C (stereo partly drawn) [megestrol acetate, reference compound] | −81

Same assay, conditions: E2, E^−8

Row | Structure (SMILES) | ZR-75-1 Activity, E2
18 | COC(=O)CCCC(=O)O[C@]1(C(C)=O)CC[C@H]2[C@@H]3C=C(C)C4=CC(=O)CC[C@]4(C)[C@H]3CC[C@@]21C [EM-1007, 6-Methyl-4,6-pregnadien-17α-ol-3,20-dione 4′-Carbomethoxybutyrate] | −41
19 | CC(=O)[C@@]1(OC(=O)CCCCF)CCC2C3C=C(C)C4=CC(=O)CC[C@]4(C)C3CC[C@@]21C (stereo partly drawn) [EM-1195-CS] | −38
20 | CCC(=O)O[C@]1(C(C)=O)CCC2C3C=C(C)C4=CC(=O)C[C@H](C)[C@]4(C)C3CC[C@@]21C (stereo partly drawn) [CS-243] | −60
21 | CC(=O)O[C@]1(C(C)=O)CCC2C3C=C(C)C4=CC(=O)CC[C@]4(C)C3CC[C@@]21C (stereo partly drawn) [megestrol acetate, reference compound] | −70

Same assay, conditions: Table 4′; E2-induced proliferation, 3E^−8

Row | Structure (SMILES) | ZR-75-1 Activity, E2 3E^−8
22 | CC1CCC2(CCC3C4CCc5cc(O)c([N+](=O)[O-])cc5C4CCC32C)OC1=O [EM-1126, 2-Nitro-1,3,5(10)-estratrien-3-ol-17(R)-spiro-2′-(5′-methyl-6′-oxo)tetrahydropyran] | 0%
23 | CC1CC(=O)OC2(CCC3C4CCc5cc(O)ccc5C4CCC32C)C1 [PB-132-142, 3-Hydroxy-1,3,5(10)-estratrien-17(R)-spiro-2′-(4′-methyl-6′-oxo)tetrahydropyran] | 0%
24 | C[C@]12CCC3c4ccc(O)cc4CCC3C1CC[C@@]21CCCC(=O)O1 (stereo partly drawn) [EM-919, 1,3,5(10)-estratrien-3-ol-17(R)-spiro-2′(6′-oxo)tetrahydropyran] | −18%
25 | CCS(=O)(=O)Oc1ccc2c(c1)CCC1C2CCC2(C)C1CCC21CCC(C)(C)C(=O)O1 (stereo not drawn) [EM-1364-CS] | −12%
26 | CC1(C)CCC2(CCC3C4CCc5cc(O)c([N+](=O)[O-])cc5C4CCC32C)OC1=O (stereo not drawn) [EM-1125-CS] | 0%
27 | C[C@]12CCC3c4cc([N+](=O)[O-])c(O)cc4CCC3C1CC[C@@]21CCCC(=O)O1 (stereo partly drawn) [EM-1124, 2-Nitro-1,3,5(10)-estraetriene-3-ol-17(R)-spiro-2′-(6′-oxo)tetrahydropyran] | 0%
28 | C=CCC1CCC2(CCC3C4CCc5cc(O)ccc5C4CCC32C)OC1=O [PB-132-152, 3-Hydroxy-1,3,5(10)-estratrien-17(R)-2′-(5′-allyl-6′-oxo)tetrahydropyran] | −11%
29 | CC1(C)CCC2(CCC3C4CCc5ccccc5C4CCC32C)OC1=O (stereo not drawn) [CS-224] | 13%
30 | COc1ccc2c(c1)CCC1C2CCC2(C)C1CCC21CCC(C)(C)C(=O)O1 (stereo not drawn) [EM-1370] | 0%
31 | CCOc1ccc2c(c1)CCC1C2CC[C@@]2(C)C1CC[C@@]21CCC(C)(C)C(=O)O1 (stereo partly drawn) [EM-1369, 3-Ethoxy-1,3,5(10)-estratrien-17(R)-spiro-2′-(5′,5′-dimethyl-6′-oxo)-tetrahydropyran] | +18%
32 | COCCOc1ccc2c(c1)CCC1C2CCC2(C)C1CCC21CCC(C)(C)C(=O)O1 [EM-1368-CS, 3-Methoxyethoxy-1,3,5(10)-estratrien-17(R)-spiro-2′-(5′,5′-dimethyl-6′-oxo)-tetrahydropyran] | 0%
33 | CC1(C)CC[C@@]2(CCC3C4CCc5cc(C(N)=O)ccc5C4CCC32C)OC1=O (stereo partly drawn) [EM-1404] | 0%
34 | COC(=O)C1CCC2(CCC3C4CCc5cc(O)ccc5C4CCC32C)OC1=O [PB-132-146, 3-Hydroxy-1,3,5(10)-estratrien-17(R)-2′-(5′-methoxycarbonyl-6′-oxo)tetrahydropyran] | 0%
35 | CC1CCC2(CCC3C4CCc5ccccc5C4CCC32C)OC1=O (stereo not drawn) [EM-1025] | 0%
36 | CC12CCC3c4ccc(O)cc4CCC3C1CCC21CC=CC(=O)O1 [PB-132-140, 3-hydroxy-1,3,5(10)-estratrien-17(R)-spiro-2′-(4′,5′-dihydro-6′-oxo)pyran] | 0%
37 | CC1CCC2(CCC3C4CCc5cc(O)c([N+](=O)[O-])cc5C4CCC32C)OC1=O [EM-1131, 2-Nitro-1,3,5(10)-estratrien-3-ol-17(R)-spiro-2′-(5′-methyl-6′-oxo)tetrahydropyran] | 0%

Same assay, conditions: with E2, 3E^−8

Row | Structure (SMILES) | ZR-75-1 Activity, E2 3E^−8
38 | CC12C=CC(=O)C=C1C=CC1C2CCC2(C)C(=O)C3(CCCCC3)CC12 (stereo not drawn) [CS-204] | 0

Same assay, conditions: with E2, E^−6

Row | Structure (SMILES) | ZR-75-1 Activity E2 E^−6
39 | CC12C=CC(=O)C=C1C=CC1C2CCC2(C)C(=O)C3(CCCCC3)CC12 (stereo not drawn) [CS-204] | −25
